Results taken from PubChem BioAssay (NCI).
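Interpolation was linear, between the two tested concentrations surrounding the appropriate level; five concentrations were tested over 48 hours in 96-well plates. GI50: concentration for 50% inhibition of growth. The concentration for full growth arrest is given as TGI.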

What was measured:
Experiment in all cases: NCI anticancer screen, dose series, 48 h
K-562 leukemia = tested on: K-562 leukemia
NCI-H226 lung = tested on: NCI-H226 lung
SNB-19 CNS = tested on: SNB-19 CNS
ACHN renal = tested on: ACHN renal
SK-MEL-28 melanoma = tested on: SK-MEL-28 melanoma
OVCAR-8 ovarian = tested on: OVCAR-8 ovarian
CCRF-CEM leukemia = tested on: CCRF-CEM leukemia
M14 melanoma = tested on: M14 melanoma
HS 578T breast = tested on: HS 578T breast
OVCAR-5 ovarian = tested on: OVCAR-5 ovarian

| SMILES | TGI (K-562 leukemia) | TGI (NCI-H226 lung) | TGI (SNB-19 CNS) | TGI (ACHN renal) | TGI (SK-MEL-28 melanoma) | TGI (OVCAR-8 ovarian) | TGI (CCRF-CEM leukemia) | TGI (M14 melanoma) | TGI (HS 578T breast) | TGI (OVCAR-5 ovarian) | GI50 (K-562 leukemia) | GI50 (NCI-H226 lung) | GI50 (SNB-19 CNS) | GI50 (ACHN renal) | GI50 (SK-MEL-28 melanoma) | GI50 (OVCAR-8 ovarian) | GI50 (CCRF-CEM leukemia) | GI50 (M14 melanoma) | GI50 (HS 578T breast) | GI50 (OVCAR-5 ovarian) |
| --- | --- | --- | --- | --- | --- | --- | --- | --- | --- | --- | --- | --- | --- | --- | --- | --- | --- | --- | --- | --- |
| O=C1CSC(/C(=C\c2ccc(Cl)cc2)c2nc3ccccc3[nH]2)=N1 | > 100 µM | 18.2 µM | 33.9 µM | 19 µM | 32.6 µM | 32 µM | > 75.7 µM | 40.3 µM | 53.2 µM | 33.5 µM |  |  |  |  |  |  |  |  |  |  |
| Cn1ncc2c(N)nc(N3CCCCC3)nc21 | > 100 µM | 48.3 µM | > 100 µM | > 100 µM | > 100 µM | 76.1 µM | 85.7 µM | > 100 µM | 76.3 µM | > 100 µM | 62 µM | 22.1 µM | 22.5 µM | 33.6 µM | 24.1 µM | 25.9 µM | 25.7 µM | 42.6 µM | 28.3 µM | 38.5 µM |
| C#CC1(O)C(COP(=O)(O)OC2CC(n3cc(F)c(=O)[nH]c3=O)OC2CO)OC(n2ccc(N)nc2=O)C1O (configuration not stated) | > 100 µM | > 36.1 µM | > 100 µM |  | 1.72 µM | 14.5 µM |  | 0.774 µM | > 35.4 µM | > 33.5 µM | 0.0101 µM | 0.0614 µM | < 0.0205 µM | < 0.01 µM | 0.0474 µM | < 0.01 µM | < 0.0129 µM | < 0.0211 µM | 0.304 µM | 0.154 µM |
| CCCCCCCCCCN(CCCCCCCCCC)CC(=O)c1ccc2cc(Br)c3ccccc3c2c1 | 4.84 µM | 3.47 µM | 5.75 µM | 3.19 µM | 3.32 µM | 4.31 µM | 6.96 µM | 3.53 µM | 21.7 µM | 5.6 µM | 2.05 µM | 1.77 µM | 2.04 µM | 1.68 µM | 1.84 µM | 2.09 µM | 2.36 µM | 1.91 µM | 3.59 µM | 2.23 µM |
| NNc1nc2ccccc2c(=O)n1NC(=O)C(=O)Nc1cccc(C(F)(F)F)c1 | > 100 µM | > 100 µM | > 100 µM | > 100 µM | > 100 µM | > 100 µM | > 100 µM | > 100 µM | > 100 µM | > 100 µM |  |  |  |  |  |  |  |  |  |  |
| CN(C)CCCN1c2nc3ccccc3cc2Sc2cc3ccccc3nc21 | > 100 µM | 4.03 µM | 3.13 µM | 2.94 µM | 2.21 µM |  | 2.55 µM | 3.23 µM | 2.91 µM | 2.97 µM | 0.639 µM | 1.46 µM | 1.69 µM | 1.55 µM | 1.04 µM |  | 1.12 µM | 1.69 µM | 1.37 µM | 1.54 µM |
| COC(=O)c1sc(C(=O)OC)c2c1CSC2 | > 100 µM | > 100 µM | > 85.8 µM | > 100 µM | > 100 µM | > 100 µM | > 100 µM | > 100 µM | > 100 µM | > 100 µM |  |  |  |  |  |  |  |  |  |  |
| OCC1OC(n2ccc3c(NO)ncnc32)C(O)C1O (configuration not stated) | 4.53 µM |  |  | 3.17 µM | 0.873 µM | 1.94 µM | 0.692 µM | 0.578 µM | > 24.1 µM | 6.33 µM | 0.201 µM | 0.251 µM | 0.263 µM | 0.0391 µM | 0.231 µM | 0.184 µM | 0.159 µM | 0.077 µM | 0.332 µM | 0.247 µM |
| CC(=O)O[C@H]1CC[C@@]2(C)C(=CC[C@H]3[C@@H]4C/C(=C\c5cccc(OCCN6CCOCC6)c5)[C@H](OC(C)=O)[C@@]4(C)CC[C@@H]32)C1 | 12.5 µM | 85.9 µM | 29.3 µM | 42.9 µM | 17.6 µM | 20.8 µM | 16.7 µM | 18.9 µM | 10.9 µM | 56.2 µM | 2.95 µM | 17.9 µM | 9.13 µM | 13.8 µM | 5.48 µM | 8.69 µM | 3.87 µM | 5.91 µM | 3.07 µM | 15 µM |
| O=C(Nc1ccc(F)cc1)c1c(NC(=O)C(F)(F)F)sc2c1CCCCC2 | > 100 µM | 5.46 µM | 21.4 µM | 7.93 µM | 13.9 µM | > 100 µM | 15.1 µM | 13.4 µM | 4.57 µM | 13.1 µM | 1.97 µM | 1.76 µM | 1.56 µM | 2.11 µM | 2.11 µM | 2.8 µM | 1.5 µM | 2.91 µM | 0.633 µM | 2.89 µM |
| COC1CC2C=C(C)/C=C/C=C/C(=O)NC(c3ccccc3)C/C=C/CCC(O)CC(=O)C2=C1O (configuration not stated) | 1.03 µM | 2.17 µM | 1.42 µM | 1.14 µM | 2.03 µM | 0.904 µM | 1.3 µM | 1.47 µM | 1.91 µM | 1.24 µM | 0.212 µM | 0.43 µM | 0.279 µM | 0.311 µM | 0.703 µM | 0.208 µM | 0.284 µM | 0.31 µM | 0.393 µM | 0.357 µM |
| CCOC(=O)C(=Cc1ccccc1[N+](=O)[O-])C(=O)OCC | > 100 µM | 12.8 µM | 16.4 µM | 4.31 µM | 9.59 µM | 11.3 µM | 20.6 µM | 10.1 µM | 11.6 µM | 15.7 µM | 3.64 µM | 3.26 µM | 4.27 µM | 2.06 µM | 2.93 µM | 2.87 µM | 3.13 µM | 2.95 µM | 2.71 µM | 5.75 µM |
| N=C(N=C(N)N)N1CCN(c2ccncc2)CC1 | > 1000 µM | > 1000 µM | > 1000 µM | > 1000 µM | > 1000 µM | > 1000 µM | > 1000 µM | > 1000 µM | > 1000 µM | > 1000 µM | > 1000 µM | > 1000 µM | > 1000 µM | > 1000 µM | > 1000 µM | 483 µM | > 1000 µM | > 1000 µM | 913 µM | > 1000 µM |
| CC/C=C\C[C@H](O)C/C=C1/C(=O)C=C[C@@H]1C/C=C\CCCC(=O)N(C)C | > 100 µM | 7.84 µM | 14.1 µM | 3.43 µM | 4.31 µM | 11.4 µM | 5.61 µM | 11 µM | 27.6 µM | 5.51 µM | 1.02 µM | 2.57 µM | 3.19 µM | 1.45 µM | 1.96 µM | 1.54 µM | 0.817 µM | 2.79 µM | 4.29 µM | 2.46 µM |
| Cc1cc(C)c(C[N+](C)(C)C)c(C)c1C | > 100 µM | 11.9 µM | > 64.5 µM | > 100 µM | 23.5 µM | > 41.6 µM | > 67.5 µM | 11.1 µM | 9.94 µM | > 62.1 µM | 0.416 µM | 0.565 µM | 0.351 µM | 0.173 µM | 0.365 µM | 0.328 µM | 0.201 µM | 0.374 µM | 0.338 µM | 0.48 µM |
| NNc1cccc(/C=C/c2ccccc2)cc1=O | > 100 µM | > 100 µM | > 100 µM | > 100 µM | > 100 µM | > 100 µM | 29.5 µM | 44.7 µM | > 100 µM | > 100 µM | 3.13 µM | 19.9 µM | 14.9 µM | 7.27 µM | 35.9 µM | 3.74 µM | 1.36 µM | 12.4 µM | 18.5 µM | 45.9 µM |
| Cc1nc2ccc(Nc3nc(NCCN4CCOCC4)nc(Nc4ccc(F)cc4)n3)cc2n1Cc1ccccc1 | 7.42 µM | 27.9 µM | 15.2 µM | 17.5 µM | 2.94 µM | > 100 µM | 8.04 µM | 3.66 µM | 6.66 µM | 13.6 µM | 1.79 µM | 4.02 µM | 3.07 µM | 2.78 µM | 1.56 µM | 3.28 µM | 2.27 µM | 1.86 µM | 1.87 µM | 2.71 µM |
| OCCSCc1ccccc1 | > 100 µM | > 100 µM | > 100 µM | > 100 µM | > 100 µM | > 100 µM | > 100 µM | > 100 µM | > 100 µM | > 100 µM |  |  |  |  |  |  |  |  |  |  |
| COc1cc(/C=C\[N+](=O)[O-])ccc1OCc1ccccc1 | 11.1 µM | 5.47 µM | 8.41 µM | 4.36 µM | 4.5 µM | 9.56 µM | 11.5 µM | 4.31 µM | > 100 µM | 13.7 µM | 2.06 µM | 2.26 µM | 2.64 µM | 1.99 µM | 2.08 µM | 2.91 µM | 3.13 µM | 1.65 µM | 3.81 µM | 3.29 µM |
| O=C(c1ccc2ncc(-c3nc(NC4CC4)ncc3F)n2c1)N1CCOCC1 | 29 µM | 6.39 µM |  | 12.4 µM | 7.6 µM | > 100 µM | 4.74 µM | 4.07 µM | 8.04 µM | 8.97 µM | 3.21 µM | 2.05 µM |  | 1.56 µM | 2.47 µM | 2.44 µM | 1.72 µM | 1.9 µM | 2.21 µM | 2.16 µM |
